# Test results reported in patent US6380359B1, “Liposomes comprising peptide antigens derived from X protein of hepatitis B virus” (Mogam Biotechnology Research Institute, priority 1998, dated 2002).
# No end group written: not given here.
# How the values were obtained:
# p815 cell = test: Cytotoxicity of T lymphocytes from Balb/C mice immunized with pH-sensitive liposomes comprising HIV peptides, Cr51 release; type: in vivo, Balb/C mouse; details: mice immunized with pH-sensitive liposomes (POPE/CHOH 7:3) comprising the peptide
# Procedure: (§1) In order to investigate whether pH-sensitive liposome as a carrier of peptides can induce CTL response specific to the virus from which the peptides are derived, pH-sensitive liposomes encapsulating synthetic peptides were prepared and cytotoxicity study were carried out in a serial manner. Since the cellular immunity of the pepitides which can bind HLA-A2, a human MHC class I molecule should be investigated employing human body, indirect experiment employing the peptides derived HIV and HCV proteins which can bind mouse MHC Class I molecule(see: Table 4 below), was carried out. In this regard, the pH-sensitive liposome comprising the peptides were obtained employing the phospholipid composition consisting of POPE/CHOH(7:3 in a molar ratio). Then, mice were immunized with the liposomes, T lymphocytes were isolated from the mice, and cytotoxicity of the T lymphocytes after recognition of target cells labelled with Cr^51 was determined.
# In case of HIV, Balb/C mouse was immunized with pH-sensitive liposomes comprising R15K or T26K, and at 4 weeks after booster immunization, its spleen was dissected and homogenized in 2 ml of RPMI cell culture medium using a homogenizer. 2 ml of the homogenate thus obtained was added to 2 ml of ficoll and centrifuged at 1,500 rpm for 30 minutes. T lymphocytes located between ficoll and the cell culture medium were separated, added to 15 ml of RPMI-10 cell culture medium, centrifuged at 1,000 rpm, and washed three times with the RPMI-10 medium. The T lymphocytes were diluted to a cell concentration of 5×10^6/ ml into a 24 well-plate, and the immunized peptide antigen was added to a final concentration of 2 μM. Then, the cells were cultured at 37° C. for 3 days in a CO2 incubator containing 5% CO2 and used as effector cells. In case of HCV, 5 week-old C57BL/6 mouse was immunized with liposomes comprising DBL peptide antigen, and T lymphocytes were isolated in the same manner as above and used as effector cells. On the other hand, p815 cell(ATCC TIB64) having MHC Class I same as that of Balb/C mouse was used as a target cell in case of HIV, and RMA cell(see: Hosken, N. A. and Bevan, M. J., J. Exp. Med., 175:719(1992)) or EL4 cell(ATCC TIB39) having MHC Class I same as that of C57BL/6 mouse was used as a target cell in case of HCV.
# 100 μM of the immunized peptide was added to the respective target cells, reacted at 37° C. for 16 hours, and washed twice with RPMI cell culture medium. Then, radioactive sodium chromate(Cr^51) was added to the cells and reacted at 37° C. for 2 hours in a CO2 incubator. After reaction, the cells were washed sufficiently with RPMI cell culture medium to remove unreacted sodium chromate, mixed with effector cells washed with phosphate buffer solution in various mixing ratios shown in table 5 below, and reacted at 37° C. for 4 hours in a CO2 incubator. The resultant medium was collected and measured for the intensity of gamma ray to determine cytotoxicity of effector cells against target cells(see: Table 5).
# T2 cells = test: Cytotoxicity of peptide-stimulated blood cells (CTL) against T2 cells sensitized by synthesized peptides, Cr51 release; type: cell-based, human; details: for Specific cytotoxicity by CTL (%): T2 cells sensitized with 100 μg/ml peptide
# Procedure: That is, blood positive to anti-HBV antibody(value obtained by ELISA: 1.0 or more) is collected from common blood donors, and centrifuged to harvest blood cells. The said peptides added in a concentration of 10 μg/ml to leukocytes remained after removing red blood cells from the blood cells, and incubated at 37° C. in a CO2 incubator maintained to contain 5% CO2. At 2 days after culture, 10 unit of interleukin-2 was added to the culture medium and the cells were further cultivated for 3 days. Then, blood cells having the same MHC were inactivated by mitomycin C and added to the culture medium as stimulating cells. And the peptides and interleukin-2 were added to the medium and the cells were further cultivated for 7 days. Then, it was determined whether the blood cells recognize and destruct T2 cells having a certain peptide at their surface, and the results were shown in Table 3 below and FIG. 2, respectively.
# Destruction of T2 cell by cultured blood cell was determined as followings: 100 μg/ml of a peptide was added to T2 cells and reacted at 37° C. for 3 hours. Then, the cells were washed sufficiently to remove unreacted peptides, added with radioactive sodium chromate(Cr^51), and reacted at 37° C. for 2 hours in a CO2 incubator. And then, they were washed with RPMI medium sufficiently to remove unreacted sodium chromate, mixed with blood cells washed with PBS in a certain ratio, and reacted at 37° C. for 4 hours in a CO2 incubator. The resultant medium was collected and measured for intensity of gamma ray to determine cytotoxicity of the blood cells against T2 cell, i.e., target cell.
# [1] = target: T1, HLA-A2.1, a human MHC Class I molecule (Homo sapiens, UniProt P04439, D140Y/D185E/D98H/E176V/E277Q/G131W/G231S/I119V/I121R/I166T/I218V/L300P/L318F/N151K/N90K/P208A/P217A/Q86G/Q94H/R138H/R169H/T345S); test: Binding of synthetic peptides to MHC Class I molecules at the surface of T2 cell (BB7.2 antibody, fluorocytometry); type: cell-based; details: peptide 1-100 μg/ml, 37° C., 4 hours; FIG. 1
# T1 construct: endogenous in cells; host or cells: T2 cell line
# Procedure: Seven different peptides including the peptides as disclosed in Table 1 above which were derived from HBV X protein were synthesized chemically and dissolved in phosphate buffered saline(hereinafter, referred to as “PBS”). In order to investigate whether the peptides can bind to MHC Class I molecules associated with induction of CTL, each peptide was added to T2 cell line in a concentration of 100, 64, 32, 16, 8, 4, 2 and 1 μg/ml, respectively, and reacted at 37° C. for 4 hours. And then, the cells were washed with PBS to remove unreacted peptides, added with BB7.2 antibody against HLA-A2.1, a human MHC Class I molecule, and reacted at 4° C. for 1 hour. The cells were washed with PBS again, added with fluorescein isothiocyanate(FITC)-conjugated anti-mouse immunoglobulin antibody, and reacted at 4° C. for 1 hour. Then, fluorescence of the cells was determined using fluorocytometer(FACScan, BECTON DICKINSON) and the results were shown in FIG. 1.
# However, when T2 cells are cultivated in a medium containing peptides which can bind to MHC molecules, the peptides bind to MHC molecules at the surface of T2 cell to increase stability of MHC molecules, which results in increase in expression of MHC molecule. Based on the knowledge, binding of a specific peptide to MHC molecule at the surface of T2 cell can be analyzed by determining degree of binding of BB7.2 antibody to the cell surface.
# RMA cell or EL4 cell = test: Cytotoxicity of T lymphocytes from C57BL/6 mice immunized with pH-sensitive liposomes comprising HCV peptide, Cr51 release; type: in vivo, C57BL/6 mouse; details: mice immunized with pH-sensitive liposomes (POPE/CHOH 7:3) comprising the peptide
# Procedure: as §1
# In case of HIV, Balb/C mouse was immunized with pH-sensitive liposomes comprising R15K or T26K, and at 4 weeks after booster immunization, its spleen was dissected and homogenized in 2 ml of RPMI cell culture medium using a homogenizer. 2 ml of the homogenate thus obtained was added to 2 ml of ficoll and centrifuged at 1,500 rpm for 30 minutes. T lymphocytes located between ficoll and the cell culture medium were separated, added to 15 ml of RPMI-10 cell culture medium, centrifuged at 1,000 rpm, and washed three times with the RPMI-10 medium. The T lymphocytes were diluted to a cell concentration of 5×10^6/ ml into a 24 well-plate, and the immunized peptide antigen was added to a final concentration of 2 μM. Then, the cells were cultured at 37° C. for 3 days in a CO2 incubator containing 5% CO2 and used as effector cells. […]
# 100 μM of the immunized peptide was added to the respective target cells, reacted at 37° C. for 16 hours, and washed twice with RPMI cell culture medium. […] The resultant medium was collected and measured for the intensity of gamma ray to determine cytotoxicity of effector cells against target cells(see: Table 5).
# [2] = Ratio of CTL against target cell 5:1
# [3] = Ratio of CTL against target cell 10:1
# [4] = Ratio of CTL against target cell 25:1
Compound,Specific cytotoxicity by CTL (%) (T2 cells; [2]),Specific cytotoxicity by CTL (%) (T2 cells; [3]),Specific cytotoxicity by CTL (%) (T2 cells; [4]),other results
"CC[C@H](C)[C@H](NC(=O)[C@@H](NC(=O)[C@@H](NC(=O)[C@H](Cc1ccccc1)NC(=O)[C@H](C)NC(=O)[C@H](CCCNC(=N)N)NC(=O)CNC(=O)[C@@H]1CCCN1C(=O)CNC(=O)[C@H](CCCNC(=N)N)NC(=O)[C@H](CCC(N)=O)NC(=O)[C@@H](NC(=O)[C@@H](N)CCCNC(=N)N)[C@@H](C)CC)C(C)C)[C@@H](C)O)C(=O)NCC(=O)N[C@@H](CCCCN)C(=O)O [R15K, RIQRGPGRAFVTIGK]",–,–,–,Specific cytotoxicity by CTL (%) (p815 cell; target cell:effector cell 1:10): 7.5%; Specific cytotoxicity by CTL (%) (p815 cell; target cell:effector cell 1:20): 15%; Specific cytotoxicity by CTL (%) (p815 cell; target cell:effector cell 1:30): 25%
CC[C@H](C)[C@H](NC(=O)[C@H](CCCNC(=N)N)NC(=O)[C@@H](NC(=O)[C@H](CCCNC(=N)N)NC(=O)[C@H](CCCCN)NC(=O)[C@H](CCCNC(=N)N)NC(=O)[C@@H](NC(=O)[C@H](CC(N)=O)NC(=O)[C@H](CC(N)=O)NC(=O)[C@H](CC(N)=O)NC(=O)[C@@H]1CCCN1C(=O)[C@H](CCCNC(=N)N)NC(=O)[C@@H](N)[C@@H](C)O)[C@@H](C)O)[C@@H](C)CC)C(=O)N[C@@H](CCC(N)=O)C(=O)N[C@@H](CCCNC(=N)N)C(=O)NCC(=O)N1CCC[C@H]1C(=O)NCC(=O)N[C@@H](CCCNC(=N)N)C(=O)N[C@@H](C)C(=O)N[C@@H](Cc1ccccc1)C(=O)N[C@H](C(=O)N[C@H](C(=O)N[C@H](C(=O)NCC(=O)N[C@@H](CCCCN)C(=O)O)[C@@H](C)CC)[C@@H](C)O)C(C)C [T26K],–,–,–,Specific cytotoxicity by CTL (%) (p815 cell; target cell:effector cell 1:10): 55%; Specific cytotoxicity by CTL (%) (p815 cell; target cell:effector cell 1:20): 80%; Specific cytotoxicity by CTL (%) (p815 cell; target cell:effector cell 1:30): 87%
"CC(C)C[C@H](NC(=O)CNC(=O)[C@H](CC(C)C)NC(=O)[C@@H](NC(=O)[C@H](CCCNC(=N)N)NC(=O)[C@H](CCCCN)NC(=O)[C@H](Cc1c[nH]cn1)NC(=O)[C@H](CC(C)C)NC(=O)[C@@H](N)C(C)C)[C@@H](C)O)C(=O)O [×4, VLHKRTLGL]",8,16,21,–
"AMSTTDLEA [×5, AMSTTDLEA]",16,24,31,–
"CLFKDWEEL (Hepatitis B virus) [×6, peptide derived from HBV X protein, position 115-123]",11,16,23,Binding to MHC Class I molecules at the surface of T2 cell [1]: successfully bind; Recognition of peptide by cultured blood cells (CTL) (T2 cells; blood cells from anti-HBV antibody positive donors): recognized by cultured blood cells
"DLMGYIPL [D8L, DLMGYIPL]",–,–,–,Specific cytotoxicity by CTL (%) (RMA cell or EL4 cell; target cell:effector cell 1:10): 5.5%; Specific cytotoxicity by CTL (%) (RMA cell or EL4 cell; target cell:effector cell 1:20): 18%; Specific cytotoxicity by CTL (%) (RMA cell or EL4 cell; target cell:effector cell 1:30): 30%
"EIRLKVFVL [×7, EIRLKVFVL]",12,19,24,–
"HLSLRGLFV [×3, HLSLRGLFV]",10,17,20,–
"TLPSPSSSA [×2, TLPSPSSSA]",5,10,11,–
"VLCLRPVGA [×1, VLCLRPVGA]",6,11,15,–
